The target of data set [1] is T1, human A2A adenosine receptors (Homo sapiens, UniProt P29274).
T1 construct: expressed in transfected cells; host or cells: CHO cells (membranes)
Kind of data set: Displacement of [3H]ZM241385 binding at human A2A adenosine receptors expressed in CHO cells. The settings on record: [3H]ZM241385 displacement, n = 3-6, geometric mean (95% confidence limits), read-out: Ki hA2A. As to the method: (§1) The human adenosine receptors have been transfected in CHO cells according with the method previously described by Klotz et al. (Naunyn-Schmied. Arch Pharm. 1998, 357: 1-9). Briefly, the cells are grown adherently and maintained in Dulbecco's Modified Eagles Medium with nutrient mixture F12 (DMEM/F12) without nucleosides, containing 10% fetal calf serum, penicillin (100 U/mL), streptomycin (100 μg/mL), L-glutamine (2 mM) and Geneticin (G418, 0.2 mg/ml) at 37° C. in 5% CO2/95% air. For membrane preparation the culture medium is removed and the cells are washed with phosphate-buffered saline and scraped off T75 flasks in ice-cold hypo tonic buffer (5 mM Tris HCl, 1 mM EDTA, pH 7.4). The cell suspension is homogenized with Polytron, the homogenate is spun for 10 min at 1000×g and the supernatant is then centrifuged for 30 min at 100,000×g. The membrane pellet is suspended in 50 mM Tris HCl buffer (pH 7.4) for A1 adenosine receptors, in 50 mM Tris HCl, 10 mM MgCl2 (pH 7.4) for A2A adenosine receptors, in 50 mM Tris HCl, 10 mM MgCl2, 1 mM EDTA (pH 7.4) for A2B and A3 adenosine receptors.
(§2) All new synthesized compounds have been tested to evaluate their affinity to human A1, A2A, A2B and A3 adenosine receptors. Displacement experiments of [^3H]-DPCPX to CHO cells transfected with the human recombinant A1 adenosine receptors are performed for 120 min at 25° C. incubating diluted membranes (50 μg of protein/assay) and at least 6-8 different concentrations of examined antagonists (Varani et al., Mol. Pharmacol., 2000, 57: 968-975). Non-specific binding is determined in the presence of 10 μM of CHA and this is always ≦10% of the total binding. Binding of [^3H]-ZM 241385 to CHO cells transfected with the human recombinant A2A adenosine receptors is performed using a suspension of membranes (50 μg of protein/assay) and at least 6-8 different concentrations of studied antagonists for an incubation time of 60 min at 4° C. Non-specific binding is determined in the presence of 1 μM ZM 241385 and is about 20% of total binding. Competition binding experiments of [^3H]-MRE 2029F20 to CHO cells transfected with the human recombinant A2B adenosine receptors are carried out incubating for 120 min at 4° C. diluted membranes (50 μg of protein/assay) and at least 6-8 different concentrations of examined compounds. Non-specific binding is defined as binding in the presence of 1 μM MRE 3029F20 and is about 25% of total binding. Competition binding experiments of [^3H]-MRE 3008F20 to CHO cells transfected with the human recombinant A3 adenosine receptors^5 are carried out incubating for 120 min at 4° C. diluted membranes (50 μg of protein/assay) and at least 6-8 different concentrations of examined ligands. Non-specific binding is defined as binding in the presence of 1 μM MRE 3008F20 and is about 25% of total binding. Bound and free radioactivity are separated by filtering the assay mixture through Whatman GF/B glass fiber filters using a Micro-Mate 196 cell harvester (Packard Instrument Co.). The filter bound radioactivity is counted on a Top Count (efficiency 57%) with Micro-Scint 20.
(§3) The protein concentration is determined according to a Bio-Rad method (Bradford, Anal Biochem. 1976, 72: 248-254) with bovine albumin as a standard reference. Inhibitory binding constant, Ki, values are calculated from those of IC50 according to Cheng & Prusoff equation (Biochem. Pharmacol 1973, 22: 3099-3108): Ki=IC50/(1+[C*]/KD*) where [C*] is the concentration of the radioligand and KD* its dissociation constant. A weighted non linear least-squares curve fitting program LIGAND (Munson et al., Anal. Biochem 1980, 107: 220-239) is used for computer analysis of inhibition experiments Data are expressed as geometric mean with 95% confidence limits in parentheses. Examples of Animal Models
(Loss of bound radioactivity is the signal in a displacement assay; it reports binding, not function.)

The target of data set [2] is T2, human A1 adenosine receptors (Homo sapiens, UniProt P30542).
T2 construct: expressed in transfected cells; host or cells: CHO cells (membranes)
T2 sequence (P30542 1-326): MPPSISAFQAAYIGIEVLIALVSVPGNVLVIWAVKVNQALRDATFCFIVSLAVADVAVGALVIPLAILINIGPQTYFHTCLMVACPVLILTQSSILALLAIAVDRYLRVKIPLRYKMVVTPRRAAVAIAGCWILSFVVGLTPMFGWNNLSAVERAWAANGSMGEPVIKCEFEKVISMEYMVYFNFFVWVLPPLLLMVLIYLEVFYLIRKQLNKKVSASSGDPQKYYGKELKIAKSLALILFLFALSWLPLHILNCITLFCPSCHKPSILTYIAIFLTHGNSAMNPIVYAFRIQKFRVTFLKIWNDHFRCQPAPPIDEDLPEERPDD
The experiment in a line: Displacement of [3H]DPCPX binding at human A1 adenosine receptors expressed in CHO cells. The settings on record: [3H]DPCPX displacement, n = 3-6, geometric mean (95% confidence limits), read-out: Ki hA1. As to the method: as §1, §2, §3

The target in data set [3] is T3, human A2B adenosine receptors (Homo sapiens, UniProt P29275).
T3 construct: expressed in transfected cells; host or cells: CHO cells (whole cells)
T3 sequence (P29275 1-332): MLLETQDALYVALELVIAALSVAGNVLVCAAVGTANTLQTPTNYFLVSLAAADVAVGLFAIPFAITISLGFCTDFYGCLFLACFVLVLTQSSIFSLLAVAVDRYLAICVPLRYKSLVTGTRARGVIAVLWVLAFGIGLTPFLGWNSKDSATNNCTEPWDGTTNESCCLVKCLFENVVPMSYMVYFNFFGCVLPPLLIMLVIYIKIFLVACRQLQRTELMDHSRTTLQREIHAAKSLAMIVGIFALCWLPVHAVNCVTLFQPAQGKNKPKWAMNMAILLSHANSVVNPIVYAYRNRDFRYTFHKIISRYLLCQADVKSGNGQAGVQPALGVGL
The experiment in a line: cAMP assay in CHO cells expressing human A2B adenosine receptors (antagonism of NECA-induced cAMP). The settings on record: antagonism of NECA (100 nM)-induced cAMP, geometric mean (95% confidence limits), read-out: IC50 hA2B (cAMP assay). The format is cell-based. Here is the method: Measurement of Cyclic AMP Levels in CHO Cells Transfected with Human A2B Adenosine Receptors
CHO cells transfected with human A2B adenosine receptors are washed with phosphate-buffered saline, diluted trypsine and centrifuged for 10 min at 200 g. The pellet containing the CHO cells (1×10^6 cells/assay) is suspended in 0.5 mL of incubation mixture: NaCl 150 mM, KCl 2.7 mM, NaH2PO4 0.37 mM, MgSO4 1 mM, CaCl2 1 mM, Hepes 5 mM, MgCl2 10 mM, glucose 5 mM, pH 7.4 at 37° C. Then 2.0 IU/mL adenosine deaminase and 0.5 mM 4-(3-butoxy-4-methoxybenzyl)-2-imidazolidinone (Ro 20-1724) as phosphodiesterase inhibitor are added and preincubated for 10 min a shaking bath at 37° C. The potency of antagonists studied are determined by antagonism of NECA (100 nM)-induced stimulation of cyclic AMP levels. The reaction is terminated by the addition of cold 6% thrichloroacetic acid (TCA). The TCA suspension is centrifuged at 2000 g for 10 min at 4° C. and the supernatant is extracted four times with water saturated diethyl ether. The final aqueous solution is tested for cyclic AMP levels by a competition protein binding assay. Samples of cyclic AMP standard ([…]) are added to each test tube containing the incubation buffer (trizma base 0.1 M, aminophylline 8.0 mM, 2-mercaptoethanol 6.0 mM (pH 7.4) and [^3H]cyclic AMP in a total volume of 0.5 mL. The binding protein previously prepared from beef adrenals, is added to the samples previously incubated at 4° C. for 150 min, and after the addition of charcoal are centrifuged at 2000 g for 10 min. The clear supernatant is counted with 4 mL of Atomlight liquid scintillator and counted in a Tri Carb Packard 2500 TR scintillation counter.
as §3

Data set [4] deals with T3, human A2B adenosine receptors. Kind of data set: Displacement of [3H]MRE2029F20 binding at human A2B adenosine receptors. The settings on record: [3H]MRE2029F20 displacement, human A2B receptors (footnote: HEK293 cells; method: CHO cells), n = 3-6; geometric mean (95% confidence limits); read-out: Ki hA2B. Here is the method:
as §1, with “The human adenosine receptors have been transfected in CHO cells according with the method previously described by Klotz et al.” left out
All new synthesized compounds have been tested to evaluate their affinity to human A1, A2A, A2B and A3 adenosine receptors. […] Pharmacol., 2000, 57: 968-975). Non-specific binding is determined in the presence of 10 μM of CHA and this is always ≦10% of the total binding. […] recombinant A2A adenosine receptors is performed using a suspension of membranes (50 μg of protein/assay) and at least 6-8 different concentrations of studied antagonists for an incubation time of 60 min at 4° C. Non-specific binding is determined in the presence of 1 μM ZM 241385 and is about 20% of total binding. […] Non-specific binding is defined as binding in the presence of 1 μM MRE 3029F20 and is about 25% of total binding. […] Non-specific binding is defined as binding in the presence of 1 μM MRE 3008F20 and is about 25% of total binding. Bound and free radioactivity are separated by filtering the assay mixture through Whatman GF/B glass fiber filters using a Micro-Mate 196 cell harvester (Packard Instrument Co.). The filter bound radioactivity is counted on a Top Count (efficiency 57%) with Micro-Scint 20.
as §3

Some results are limits rather than exact numbers.

T1 sequence (P29274 whole entry): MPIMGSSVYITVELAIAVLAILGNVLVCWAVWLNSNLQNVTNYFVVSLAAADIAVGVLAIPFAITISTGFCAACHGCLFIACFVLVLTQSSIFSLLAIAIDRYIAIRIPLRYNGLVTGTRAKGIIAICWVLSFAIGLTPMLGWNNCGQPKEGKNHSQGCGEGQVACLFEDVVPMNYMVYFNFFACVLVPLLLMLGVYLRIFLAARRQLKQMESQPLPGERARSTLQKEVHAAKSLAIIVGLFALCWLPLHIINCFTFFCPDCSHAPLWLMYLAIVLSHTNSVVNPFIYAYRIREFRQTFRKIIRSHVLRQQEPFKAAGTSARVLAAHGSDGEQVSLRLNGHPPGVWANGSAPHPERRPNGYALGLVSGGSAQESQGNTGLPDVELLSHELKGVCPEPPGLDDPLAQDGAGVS

The compound `CCCn1c(=O)c2[nH]c(-c3cc(C)n(CC(=O)Nc4ccc(N(C)C)cc4)n3)nc2n(CCC)c1=O` [Example 11, 2-[3-(2,6-Dioxo-1,3-dipropyl-2,3,6,7-tetrahydro-1H-purin-8-yl)-5-methyl-pyrazol-1-yl]-N-(4-dimethylaminophenyl)-acetamide] displayed a melting point above 300 °C. Further, in data set [1], the Ki is above 1 µM. In addition, the Ki in data set [2] was above 1 µM. In addition, the IC50 in data set [3] is above 1 µM.

`CCCn1c(=O)c2[nH]c(-c3cc(C)n(CC(=O)Nc4ccc(Cl)cc4)n3)nc2n(CCC)c1=O` [Example 4, 2-[3-(2,6-Dioxo-1,3-dipropyl-2,3,6,7-tetrahydro-1H-purin-8-yl)-5-methyl-pyrazol-1-yl]-N-(4-chlorophenyl)-acetamide] registered a melting point of 261 to 265 °C. In addition, the inhibition constant Ki in data set [4] came out at 0.007 µM. For the same compound, the IC50 in data set [3] is 0.043 µM.

For `CCCn1c(=O)c2[nH]c(-c3cc(C)n(CC(=O)Nc4ccc(Br)cc4)n3)nc2n(CCC)c1=O` [Example 3, 2-[3-(2,6-Dioxo-1,3-dipropyl-2,3,6,7-tetrahydro-1H-purin-8-yl)-5-methyl-pyrazol-1-yl]-N-(4-bromophenyl)acetamide], the melting point lay in the range of 270 to 273 °C. Also, the Ki in data set [4] is 0.035 µM. Also, the IC50 in data set [3] was 0.156 µM.

For the compound `CCCn1c(=O)c2[nH]c(-c3cc(C)n(CC(=O)Nc4cccc5ccccc45)n3)nc2n(CCC)c1=O` [Example 13, 2-[3-(2,6-Dioxo-1,3-dipropyl-2,3,6,7-tetrahydro-1H-purin-8-yl)-5-methyl-pyrazol-1-yl]-N-(naphthalen-1-yl)-acetamide], the melting point was above 300 °C. In addition, the Ki in data set [1] was above 1 µM. Also, the inhibition constant (Ki) in data set [2] is above 1 µM. Also, in data set [3], the IC50 was above 1 µM.

For `CCCn1c(=O)c2[nH]c(-c3cc(CC)n(CC(=O)Nc4ccc(Cl)cc4)n3)nc2n(CCC)c1=O` [Example 9], the melting point was 256 to 257 °C. The Ki in data set [1] was above 1 µM. The inhibition constant Ki in data set [2] was above 1 µM. Further, in data set [3], the concentration for half-maximal inhibition (IC50) is above 1 µM.

On to `CCCn1c(=O)c2[nH]c(-c3nn(CC(=O)Nc4ccc(Cl)cc4)c(C)c3I)nc2n(CCC)c1=O` [Example 20, 2-[4-Iodo-3-(2,6-dioxo-1,3-dipropyl-2,3,6,7-tetrahydro-1H-purin-8-yl)-5-methyl-pyrazol-1-yl]-N-(4-chlorophenyl)-acetamide], for which the melting point lay in the range of 296 to 297 °C. Also, the inhibition constant (Ki) in data set [1] was above 1 µM. Further, the inhibition constant Ki in data set [2] is above 1 µM. In data set [3], the concentration for half-maximal inhibition (IC50) is above 1 µM.

One may read the Ki as the dissociation constant of the complex between target and ligand, obtained from inhibition or displacement. Usually melting point stands for the temperature of the solid-liquid transition. Broadly, the IC50 is the concentration at which inhibition is half-maximal.

The values above are taken from patent publication US7767685B2, “Adenosine A2B receptor antagonists” (King Pharmaceuticals Research and Development, Inc., priority 2006, dated 2010).
